From ChEMBL document CHEMBL1157568, “Toward biophysical probes for the 5-HT3 receptor: structure-activity relationship study of granisetron derivatives” (J Med Chem, 2010)
Calls of active or inactive are those of the source. No cut-off for these calls is given here.

How the values were obtained:
[1] = target: T1, 5-hydroxytryptamine receptor 3A (Homo sapiens, UniProt P46098); test: Binding affinity to human 5HT3A receptor in HEK293 cells assessed as cell labeling by confocal microscopy; assay type: cell-based
T1 sequence (P46098 whole entry): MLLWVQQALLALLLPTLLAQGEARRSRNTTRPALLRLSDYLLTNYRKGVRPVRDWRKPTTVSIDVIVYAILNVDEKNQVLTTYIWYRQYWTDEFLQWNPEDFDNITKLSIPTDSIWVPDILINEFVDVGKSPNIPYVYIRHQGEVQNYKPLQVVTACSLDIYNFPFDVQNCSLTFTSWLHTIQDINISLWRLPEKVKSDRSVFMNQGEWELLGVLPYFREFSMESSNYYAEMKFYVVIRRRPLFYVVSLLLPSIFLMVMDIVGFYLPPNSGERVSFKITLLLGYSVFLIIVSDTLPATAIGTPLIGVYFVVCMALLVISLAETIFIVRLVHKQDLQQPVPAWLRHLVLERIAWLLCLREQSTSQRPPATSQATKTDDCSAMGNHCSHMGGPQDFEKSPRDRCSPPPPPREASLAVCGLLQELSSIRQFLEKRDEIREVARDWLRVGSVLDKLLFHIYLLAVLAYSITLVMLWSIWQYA

[2] = target: T2, 5-hydroxytryptamine receptor 3A (Homo sapiens) (UniProt P46098); test: Binding affinity to human 5HT3A receptor in HEK293 cells assessed as cell labeling by confocal microscopy in presence of quipazine; assay type: cell-based
T2 sequence (whole entry): T1 sequence (P46098 whole entry)

What does the source list for `Cc1cc(C)n2c1C=C1C=CC(NCC(=O)NCCCn3nc(C(=O)N[C@H]4C[C@H]5CCC[C@@H](C4)N5C)c4ccccc43)=[N+]1[B-]2(F)F`?
Ki [1]: 2.8 nM; Activity [2]: Active
